{
  "source": "patent US10119122B2",
  "about": "“Differentiation and expansion of endothelial cells from pluripotent stem cells and the in vitro formation of vasculature like structures” (Academisch Ziekenhuis Leiden, priority 2013, dated 2018)",
  "system": "hPSCs",
  "assay": "Monolayer endothelial differentiation of hPSCs in defined medium, flow cytometry at day 10",
  "assay_type": "cell-based, human",
  "conditions": "VEGF together with SB-431542 5 μM from day 3, versus VEGF only; average over several cell lines",
  "from_the_text": "hiPSC lines were generated from Fib or BOECs using conditional lentiviral vectors containing the four transcription factors oct4, c-myc, Klf4 and Sox2, and characterized as described previously (Dambrot et al., 2013; Freund et al., 2008; Orlova et al., manuscript in preparation). hiPSCs and hESC (line HES-NL4; (van de Stolpe et al., 2005)) were routinely maintained on growth factor reduced MATRIGEL®-(BD, 354230) coated plates in mTeSR media (StemCell Technologies, 05850) and passaged mechanically. Differentiation was induced three days after passaging colonies by replacing mTeSR medium with the differentiation media based on BPEL (without PVA) (Ng et al., 2008) with timed addition of the following growth factors: 25 ng/ml ActivinA (Miltenyi, 130-095-547), 30 ng/ml BMP4 (Miltenyi, 130-095-549), VEGF165 (R&D Systems, 293-VE) and small molecule inhibitor CHIR99021 (Tocris, 4423). At day 3 and day 7 of differentiation, the media was refreshed with BPEL containing VEGF and 5 μM SB43152 (Tocris, 1614) only.\nCells were dissociated with TrypLE Select and washed once with the FACs buffer with the 10% FBS, followed by the single wash with the FACs buffer. […] In some experiment samples were analyzed with the MACSQuant VYB (Miltenyi). […]",
  "data": [
    {"smiles": "NC(=O)c1ccc(-c2nc(-c3ccc4c(c3)OCO4)c(-c3ccccn3)[nH]2)cc1", "note": "[SB431542, reference compound]", "values": [
      {"measurement": "increase in the yield of ECs", "value": 30, "unit": "%"}
    ]}
  ]
}
